Reference: ChEMBL document CHEMBL1201862, “PubChem BioAssay data set” (2004)
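All cell lines were grown in 96-well plates and treated with compound for 48 hours. GI50 marks 50% less growth.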 Activity calls are given as the source filed them. Rule as the data show it: active = GI50 up to about 1.1 µM and inactive = higher.

Key:
Experiment in all cases: inhibition of tumour cell growth, NCI panel, 48 h
U-251 = tested on: U-251
SF-539 = tested on: SF-539
Malme-3M = tested on: Malme-3M
T47D = tested on: T47D
OVCAR-5 = tested on: OVCAR-5
TK-10 = tested on: TK-10
SF-268 = tested on: SF-268
IGROV-1 = tested on: IGROV-1
HCC 2998 = tested on: HCC 2998
NCI-H23 = tested on: NCI-H23
EKVX = tested on: EKVX
SK-MEL-28 = tested on: SK-MEL-28
M14 = tested on: M14
OVCAR-8 = tested on: OVCAR-8
HCT-15 = tested on: HCT-15
MCF7 = tested on: MCF7
UACC-62 = tested on: UACC-62
SW-620 = tested on: SW-620
MOLT-4 = tested on: MOLT-4
SR = tested on: SR

SMILES | GI50 (U-251) | GI50 (SF-539) | GI50 (Malme-3M) | GI50 (T47D) | GI50 (OVCAR-5) | GI50 (TK-10) | GI50 (SF-268) | GI50 (IGROV-1) | GI50 (HCC 2998) | GI50 (NCI-H23) | GI50 (EKVX) | GI50 (SK-MEL-28) | GI50 (M14) | GI50 (OVCAR-8) | GI50 (HCT-15) [µM] | GI50 (MCF7) | GI50 (UACC-62) | GI50 (SW-620) | GI50 (MOLT-4) | GI50 (SR)
O=c1c2ncn(C3CC(O)C(CO)O3)c2nnn1Cc1ccccc1[N+](=O)[O-] (centres undefined) | > 100 µM (inactive) | > 100 µM (inactive) | > 100 µM (inactive) | > 100 µM (inactive) | > 100 µM (inactive) | > 100 µM (inactive) | > 100 µM (inactive) | > 100 µM (inactive) | > 100 µM (inactive) | > 100 µM (inactive) | > 100 µM (inactive) | > 100 µM (inactive) | > 100 µM (inactive) | > 100 µM (inactive) | > 100 | > 100 µM (inactive) | > 100 µM (inactive) | > 100 µM (inactive) | 29.4 µM (inactive) | 3.13 µM (inactive)
C=C(CN(C)C)C(=O)c1ccc(C)cc1C | 16.9 µM (inactive) | 12.7 µM (inactive) | 5.7 µM (inactive) | 3.31 µM (inactive) | 14.1 µM (inactive) | 8.73 µM (inactive) | 15.3 µM (inactive) | 7.23 µM (inactive) | 17.1 µM (inactive) | 10.6 µM (inactive) | 12.9 µM (inactive) | 6.1 µM (inactive) | 5.93 µM (inactive) | 12.9 µM (inactive) | 4.52 | 3.3 µM (inactive) | 10.5 µM (inactive) | 2.74 µM (inactive) | 1.01 µM (active) | 1.25 µM (inactive)
CCN(CC)/[N+]([O-])=N/OS(=O)(=O)N(C)C | > 100 µM (inactive) | > 100 µM (inactive) | > 100 µM (inactive) | > 100 µM (inactive) | > 100 µM (inactive) | > 100 µM (inactive) | > 100 µM (inactive) | > 100 µM (inactive) | > 100 µM (inactive) | > 100 µM (inactive) | > 100 µM (inactive) | > 100 µM (inactive) | > 100 µM (inactive) | > 100 µM (inactive) | > 100 | > 100 µM (inactive) | > 100 µM (inactive) | > 100 µM (inactive) | > 100 µM (inactive) | > 100 µM (inactive)
Cc1ccc(C)n2c1nc1ccccc12 | > 100 µM (inactive) | > 100 µM (inactive) | > 100 µM (inactive) | > 100 µM (inactive) | > 100 µM (inactive) | > 100 µM (inactive) | > 100 µM (inactive) | > 100 µM (inactive) | > 100 µM (inactive) | > 100 µM (inactive) | 62.7 µM (inactive) | > 100 µM (inactive) | > 100 µM (inactive) | > 100 µM (inactive) | > 100 | > 100 µM (inactive) | 80.5 µM (inactive) | > 100 µM (inactive) | 62.4 µM (inactive) | > 100 µM (inactive)
C/C(=N\NC(=S)N1CCCCCC1)c1ccccn1 | 0.00522 µM (active) | 0.0506 µM (active) | 0.0316 µM (active) | 0.00438 µM (active) | 0.897 µM (active) | 0.573 µM (active) | 0.405 µM (active) | 0.00162 µM (active) | 0.158 µM (active) | 0.00897 µM (active) | 0.0641 µM (active) | 1.18 µM (inactive) | 0.0266 µM (active) | 0.00383 µM (active) |  | 0.0022 µM (active) | 0.00881 µM (active) | 0.0148 µM (active) | 0.00676 µM (active) | 0.00392 µM (active)
CC(C)C(C/C=C1\CC(CO)(COC(=O)C2CCCCC2)OC1=O)C(C)C (centres undefined) | 19 µM (inactive) | 20.3 µM (inactive) | 16.2 µM (inactive) | 21.2 µM (inactive) | 20 µM (inactive) | 21 µM (inactive) | 17.7 µM (inactive) | 22.9 µM (inactive) | 27.9 µM (inactive) | 20.6 µM (inactive) | 19 µM (inactive) | 16.6 µM (inactive) | 21.8 µM (inactive) | 18.7 µM (inactive) | 21.7 | 21.2 µM (inactive) | 43.8 µM (inactive) | 21.3 µM (inactive) | 6.87 µM (inactive) | 27 µM (inactive)
